What was measured:
[1] = molecular target: T1, IRE1α (Homo sapiens, UniProt O75460); test: Biochemical assay: inhibition of RNase activity of IRE1α; details: enzyme 0.325 nM, substrate 100 nM, 20 minutes
T1 construct: purchased Signal Chem E31-11G
Experimental: Biochemical Assay: Inhibition of RNase Activity of IRE1α
The RNase reactions were performed in 384 well black ProxiPlate-384 Plus plates (PERKIN Elmer) using 50 mM Tris assay buffer with 0.5 mM MgCl2, 10 mM KCl, 0.03% Tween, 2 mM DTT and 1% DMSO. Test compounds were prepared on the day of assay and dispensed using D300 digital dispenser as a 10-point ½ log dilution series in duplicate, normalized to a final DMSO concentration of […]. Test compounds were pre-incubated for 30 min at room temperature with IRE1α kinase (E31-11G from Signal Chem) in 2.5 μL of assay buffer. Then 2.5 μl of assay buffer containing substrate (5′ Alexa Fluor 647-rCrArU rGrUrC rCrGrC rArGrC rGrCrArUrG-Iowa Black RQ quencher 3′) added, giving a final concentration of enzyme of 0.325 nM and of substrate of 100 nM. After 20 minutes incubation at room temperature the reactions were stopped by added 5 μL of 5M urea, incubated at room temperature for 10 minutes and fluorescence measured on a plate reader (EnVision, PerkinElmer). IC50 values calculated by fitting a sigmoidal curve to percent inhibition of control versus compound concentration.

[2] = tested on: ARPE-19 cells stably expressing XBP1 (a.a. 1-376); test: Cellular XBP1 splicing assay (NanoLuc luciferase, thapsigargin); format: cell-based; details: thapsigargin 150 nM
Experimental: Cellular XBP1 Splicing Assay
ARPE-19 cells stably expressing XBP1 (a.a. 1-376) with nano-luciferase gene sequence linked so it is in frame when XBP1 is spliced, were cultured in F12 media, 10% FBS, 0.044% sodium bicarbonate, 150 μg/ml hygromycin B and seeded for assays at 5,000 cells in 384 well plates in culture media without hygromycin B and incubated at 37° C./5% CO2. After overnight incubation test compounds were added to the cell plate in a 10-point ½ log dilution series in duplicate (final DMSO concentration 0.117%). After further incubation of 30 minutes thapsigargin was added (final concentration 150 nM) and then another 4 hour incubation. A NanoLuc luciferase assay (Promega) was used according to the manufacturer's instructions to detect the luciferase and luminescence measured on a luminometer (EnVision, PerkinElmer). IC50 values calculated by fitting a sigmoidal curve to percent inhibition of control of compound concentration.

T1 sequence (O75460 468-977 limits assumed): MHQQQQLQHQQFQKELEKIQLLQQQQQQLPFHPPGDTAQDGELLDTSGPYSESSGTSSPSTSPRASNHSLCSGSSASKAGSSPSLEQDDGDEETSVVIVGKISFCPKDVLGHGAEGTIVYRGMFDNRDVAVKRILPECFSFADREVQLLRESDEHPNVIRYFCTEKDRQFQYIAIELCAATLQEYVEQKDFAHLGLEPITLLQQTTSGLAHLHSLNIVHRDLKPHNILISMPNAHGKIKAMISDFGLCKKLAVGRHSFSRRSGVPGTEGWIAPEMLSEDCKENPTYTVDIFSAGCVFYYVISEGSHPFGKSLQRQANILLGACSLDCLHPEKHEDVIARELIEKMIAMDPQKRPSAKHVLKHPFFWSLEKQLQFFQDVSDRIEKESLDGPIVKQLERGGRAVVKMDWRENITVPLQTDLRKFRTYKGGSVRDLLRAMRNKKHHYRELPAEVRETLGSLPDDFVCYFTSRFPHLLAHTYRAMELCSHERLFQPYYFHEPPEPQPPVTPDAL

Row | SMILES | IC50 [1] [nM] | IC50 ([2]; Homo sapiens, ARPE-19, 4 h) [nM] | IC50 ([2]; 4 hour) [nM]
1 | CC(C)n1nc(-c2cc(F)c(NS(=O)(=O)c3ccccc3Cl)cc2F)c2c(N)ncc(C3=CCC(NC4COC4)CC3)c21 (racemic) [racemic mixture of B10 & B11, N-(4-(4-amino-1-isopropyl-7-(4-(oxetan-3-ylamino)cyclohex-1-en-1-yl)-1H-pyrazolo[4,3-c]pyridin-3-yl)-2,5-difluorophenyl)-2-chlorobenzenesulfonamide] | 60 | 160 | –
2 | CC(C)n1nc(-c2ccc(NS(=O)(=O)c3cc(Cl)ccc3F)c(F)c2)c2c(N)ncc(C3=CCC(NC4COC4)CC3)c21 (racemic) [racemic mixture of B14 & B15, N-(4-(4-amino-1-isopropyl-7-(4-(oxetan-3-ylamino)cyclohex-1-en-1-yl)-1H-pyrazolo[4,3-c]pyridin-3-yl)-2-fluorophenyl)-5-chloro-2-fluorobenzenesulfonamide] | 60 | 3.3 | –
3 | Cc1ccc(F)c(S(=O)(=O)Nc2ccc(-c3nn(C(C)C)c4c(C5=CCC(NC6COC6)CC5)cnc(N)c34)cc2F)c1 (racemic) [racemic mixture of B16 & B17, N-(4-(4-amino-1-isopropyl-7-(4-(oxetan-3-ylamino)cyclohex-1-en-1-yl)-1H-pyrazolo[4,3-c]pyridin-3-yl)-2-fluorophenyl)-2-fluoro-5-methylbenzenesulfonamide] | 13 | 94 | –
4 | CC(C)n1nc(-c2ccc(NS(=O)(=O)c3ccccc3Cl)c(F)c2)c2c(N)ncc(C3=CCC(NC4COC4)CC3)c21 (racemic) [racemic mixture of B56 & B57, N-(4-(4-amino-1-isopropyl-7-(4-(oxetan-3-ylamino)cyclohex-1-en-1-yl)-1H-pyrazolo[4,3-c]pyridin-3-yl)-2-fluorophenyl)-2-chlorobenzenesulfonamide] | 26 | 52 | –
5 | CC(C)n1nc(-c2ccc(NS(=O)(=O)c3ccccc3F)c(F)c2)c2c(N)ncc(C3=CCC(NC4COC4)CC3)c21 (racemic) [racemic mixture of B58 & B59, N-(4-(4-amino-1-isopropyl-7-(4-(oxetan-3-ylamino)cyclohex-1-en-1-yl)-1H-pyrazolo[4,3-c]pyridin-3-yl)-2-fluorophenyl)-2-fluorobenzenesulfonamide] | 61 | 92 | –
6 | CCn1nc(-c2ccc(NS(=O)(=O)c3ccccc3Cl)c(F)c2)c2c(N)ncc(C3=CCC(NC4COC4)CC3)c21 (racemic) [racemic mixture of B61 & B62, N-(4-(4-amino-1-ethyl-7-(4-(oxetan-3-ylamino)cyclohex-1-en-1-yl)-1H-pyrazolo[4,3-c]pyridin-3-yl)-2-fluorophenyl)-2-chlorobenzenesulfonamide] | 40 | 100 | –
7 | CC(C)n1nc(-c2ccc(NS(=O)(=O)Cc3ccccc3F)c(F)c2)c2c(N)ncc(C3=CCC(NC4COC4)CC3)c21 (single isomer, unassigned) [Compound B1, N-(4-(4-amino-1-isopropyl-7-(4-(oxetan-3-ylamino)cyclohex-1-en-1-yl)-1H-pyrazolo[4,3-c]pyridin-3-yl)-2-fluorophenyl)-1-(2-fluorophenyl)methanesulfonamide] | 2.4 | – | 30
8 | COCC(C)NC1CC=C(c2cnc(N)c3c(-c4ccc(NS(=O)(=O)Cc5ccccc5Cl)c(F)c4)nn(C(C)C)c23)CC1 (single isomer, unassigned) [Compound B4, N-(4-(4-amino-1-isopropyl-7-(4-((1-methoxypropan-2-yl)amino)cyclohex-1-en-1-yl)-1H-pyrazolo[4,3-c]pyridin-3-yl)-2-fluorophenyl)-1-(2-chlorophenyl)methanesulfonamide] | 1.2 | 6.8 | –
9 | COCC(C)NC1CC=C(c2cnc(N)c3c(-c4ccc(NS(=O)(=O)Cc5ccccc5Cl)c(F)c4)nn(C(C)C)c23)CC1 (single isomer, unassigned) [Compound B5, N-(4-(4-amino-1-isopropyl-7-(4-((1-methoxypropan-2-yl)amino)cyclohex-1-en-1-yl)-1H-pyrazolo[4,3-c]pyridin-3-yl)-2-fluorophenyl)-1-(2-chlorophenyl)methanesulfonamide] | 1.2 | – | 6.5
10 | CC(C)n1nc(-c2cc(F)c(NS(=O)(=O)Cc3ccccc3Cl)cc2F)c2c(N)ncc(C3=CCC(NC4COC4)CC3)c21 (single isomer, unassigned) [Compound B7, N-(4-(4-amino-1-isopropyl-7-(4-(oxetan-3-ylamino)cyclohex-1-en-1-yl)-1H-pyrazolo[4,3-c]pyridin-3-yl)-2,5-difluorophenyl)-1-(2-chlorophenyl)methanesulfonamide] | 21 | – | 410
11 | COc1ccc(Cl)c(S(=O)(=O)Nc2ccc(-c3nn(C(C)C)c4c(C5=CCC(NC6COC6)CC5)cnc(N)c34)cc2F)c1 (single isomer, unassigned) [Compound B8, N-(4-(4-amino-1-isopropyl-7-(4-(oxetan-3-ylamino)cyclohex-1-en-1-yl)-1H-pyrazolo[4,3-c]pyridin-3-yl)-2-fluorophenyl)-2-chloro-5-methoxybenzenesulfonamide] | 6.7 | – | 19
12 | COc1ccc(Cl)c(S(=O)(=O)Nc2ccc(-c3nn(C(C)C)c4c(C5=CCC(NC6COC6)CC5)cnc(N)c34)cc2F)c1 (single isomer, unassigned) [Compound B9, N-(4-(4-amino-1-isopropyl-7-(4-(oxetan-3-ylamino)cyclohex-1-en-1-yl)-1H-pyrazolo[4,3-c]pyridin-3-yl)-2-fluorophenyl)-2-chloro-5-methoxybenzenesulfonamide] | 70 | – | 150
13 | CC(C)n1nc(-c2cc(F)c(NS(=O)(=O)c3ccccc3Cl)cc2F)c2c(N)ncc(C3=CCC(NC4COC4)CC3)c21 (single isomer, unassigned) [Compound B11, N-(4-(4-amino-1-isopropyl-7-(4-(oxetan-3-ylamino)cyclohex-1-en-1-yl)-1H-pyrazolo[4,3-c]pyridin-3-yl)-2,5-difluorophenyl)-2-chlorobenzenesulfonamide] | 34 | – | 500
14 | CC(C)n1nc(-c2ccc(NS(=O)(=O)Cc3ccccc3Cl)c(F)c2)c2c(N)ncc(C3=CCC(NC4COC4)CC3)c21 (single isomer, unassigned) [Compound B13, N-(4-(4-amino-1-isopropyl-7-(4-(oxetan-3-ylamino)cyclohex-1-en-1-yl)-1H-pyrazolo[4,3-c]pyridin-3-yl)-2-fluorophenyl)-1-(2-chlorophenyl)methanesulfonamide] | 5.2 | – | 90
15 | CC(C)n1nc(-c2ccc(NS(=O)(=O)c3cc(Cl)ccc3F)c(F)c2)c2c(N)ncc(C3=CCC(NC4COC4)CC3)c21 (single isomer, unassigned) [Compound B14, N-(4-(4-amino-1-isopropyl-7-(4-(oxetan-3-ylamino)cyclohex-1-en-1-yl)-1H-pyrazolo[4,3-c]pyridin-3-yl)-2-fluorophenyl)-5-chloro-2-fluorobenzenesulfonamide] | 6.8 | – | 160
16 | CC(C)n1nc(-c2ccc(NS(=O)(=O)c3cc(Cl)ccc3F)c(F)c2)c2c(N)ncc(C3=CCC(NC4COC4)CC3)c21 (single isomer, unassigned) [Compound B15, N-(4-(4-amino-1-isopropyl-7-(4-(oxetan-3-ylamino)cyclohex-1-en-1-yl)-1H-pyrazolo[4,3-c]pyridin-3-yl)-2-fluorophenyl)-5-chloro-2-fluorobenzenesulfonamide] | 1.4 | – | 24
17 | COCCN[C@H]1CC[C@H](c2cnc(N)c3c(-c4cc(F)c(NS(=O)(=O)c5cc(Cl)ccc5Cl)cc4F)nn(C(C)C)c32)CC1 [Compound A61, N-(4-(4-amino-1-isopropyl-7-((1r,4r)-4-((2-methoxyethyl)amino)cyclohexyl)-1H-pyrazolo[4,3-c]pyridin-3-yl)-2,5-difluorophenyl)-2,5-dichlorobenzenesulfonamide] | – | 5 | –
18 | CCc1ccc(Cl)c(S(=O)(=O)Nc2cc(F)c(-c3nn(C(C)C)c4c3c(N)ncc4[C@H]3CC[C@H](NCCOC)CC3)cc2F)c1 [Compound A62, N-(4-(4-amino-1-isopropyl-7-((1r,4r)-4-((2-methoxyethyl)amino)cyclohexyl)-1H-pyrazolo[4,3-c]pyridin-3-yl)-2,5-difluorophenyl)-2chloro-5-ethylbenzenesulfonamide] | – | 6 | –
19 | CC(F)CN[C@H]1CC[C@H](c2cnc(N)c3c(-c4cc(F)c(NS(=O)(=O)c5ccccc5F)cc4F)nn(C(C)C)c32)CC1 (some centres unmarked) [Compound A63, N-(4-(4-amino-7-((1r,4r)-4-((2-fluoropropyl)amino)cyclohexyl)-1-isopropyl-1H-pyrazolo[4,3-c]pyridin-3-yl)-2,5-difluorophenyl)-2-fluorobenzenesulfonamide] | – | 13 | –
